Here are results for 30 compounds from patent EP2548863A1, “New CRTh2 antagonists” (Almirall, S.A., priority 2011, dated 2013).

This experiment deals with T1, CRTh2 receptor (Homo sapiens, UniProt Q9Y5Y4).
T1 construct: expressed in transfected cells; host or cells: CHO.K1 cells (membranes)
T1 sequence (Q9Y5Y4 1-395): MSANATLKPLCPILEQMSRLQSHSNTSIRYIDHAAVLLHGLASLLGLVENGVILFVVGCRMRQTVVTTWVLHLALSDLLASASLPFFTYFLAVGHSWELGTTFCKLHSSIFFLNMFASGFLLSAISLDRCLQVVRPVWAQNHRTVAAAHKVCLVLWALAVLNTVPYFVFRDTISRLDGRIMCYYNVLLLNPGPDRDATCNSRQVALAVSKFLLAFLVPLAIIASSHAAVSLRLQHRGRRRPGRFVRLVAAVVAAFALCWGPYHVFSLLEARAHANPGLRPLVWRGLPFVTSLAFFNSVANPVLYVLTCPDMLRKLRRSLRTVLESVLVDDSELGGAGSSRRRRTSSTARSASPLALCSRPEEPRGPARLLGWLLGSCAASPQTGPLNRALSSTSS
Description: CRTh2 GTPγS antagonism binding assay. It counts as biochemical. The note with it: membranes from CHO.K1 cells stably overexpressing the CRTh2 receptor; [35S]-GTPγS 0.1 nM; PGD2 at 50 nM (EC80); IC50 per method; read-out: GTPγ Binding. How it is done: CRTh2 GTPγS antagonism bending assay
The assay is performed using membranes obtained from CHO.K1 cells stably overexpressing the CRTh2 receptor and [^35S]-GTPγS as radioligand. Assay is performed pre-incubating 4-8 µg of membranes per well with the compound to be tested for 1h, followed by incubation with PGD2 at 50 nM (EC80), 0.1 nM [^35S]-GTPγS in incubation buffer (20 mM Herpes, 10 mM MgCl2, 100 mM NaCl, 10 µM GDP, 10 µg/ml Saponine and 0.2% BSA) for 2 h at room temperature. The reaction is terminated by filtering in GF/C plates pre-treated with 20 mM HEPES, 10 mM MgCl2, 100 mM NaCl and washing 6 times with wash buffer (20 mM NaH2PO4, 20 mM Na2HPO4). After washing, plates are dried and scintillation buffer Optiphase added. The radioactivity retained in the filter is counted using a Microbeta liquid scintillation counter. Compound IC50 are determined using Excel XL-fit for calculations.
As to `CCN(Cc1cc(C(F)(F)F)ccc1-c1cn(CC(=O)O)c2ccccc12)C(=O)C1CC1` [Example 31, (3-[2-[[(Cyclopropylcarbonyl)(ethyl)amino]methyl)-4-(trifluoromethyl)phenyl]-1H-indol-1-yl}acetic acid], the IC50 amounted to 19 nM. Then `CCN(Cc1cc(C(F)(F)F)ccc1-c1nn(CC(=O)O)c2ccc(Cl)c(F)c12)C(=O)C1CC1` [Example 27], with 14 nM; and `CCN(Cc1cc(C(F)(F)F)ccc1-c1cn(CC(=O)O)c2ccc(F)cc12)C(=O)NCc1ccccc1` [Example 43, {3-[2-{[[(Benzylamino)carbonyl](ethyl)aaino]methyl]-4-(trifluoromethyl)phenyl]-5-fluoro-1H-indol-1-yl}acetic acid], with 16 nM. Take `CCN(Cc1cc(F)ccc1-c1nn(CC(=O)O)c2ccc(Cl)cc12)C(C)=O` [Example 22]: the IC50 came out at 10 nM.

As to `CCN(Cc1cc(F)ccc1-c1cn(CC(=O)O)c2ccc(F)cc12)C(=O)C1CC1` [Example 42, [3-(2-([(Cyclopropylcarbonyl)(ethyl)amino]methyl}-4-fluorophenyl)-5-fluoro-1H-indol-1-yl]acetic acid], the IC50 amounted to 6 nM.

On to `CCN(Cc1cc(F)ccc1-c1nn(CC(=O)O)c2ccc(Cl)cc12)C(=O)C1CC1` [Example 11, [5-Chloro-3-(2-{[(cyclopropylcarbonyl)(ethyl)amino]methyl}-4-fluorophenyl)-1H-indazol-1-yl]acetic acid], for which the IC50 was determined as 6 nM. Take `CCN(Cc1cc(C(F)(F)F)ccc1-c1cn(CC(=O)O)c2ccc(F)cc12)C(=O)C1CC1` [Example 33]: the IC50 came to 18 nM. Take `CCN(Cc1cc(F)ccc1-c1cn(CC(=O)O)c2ccc(C(F)(F)F)cc12)C(=O)C1CC1` [Example 39, [3-(2-[[(Cyclopropylcarbonyl)(ethyl)amino]methyl}-4-fluorophenyl)-5-(trifluoromethyl)-1H-indol-1-yl]acetic acid]: the IC50 amounted to 13 nM.

With `CCN(Cc1cc(C(F)(F)F)ccc1-c1nn(CC(=O)O)c2ccc(C)cc12)C(=O)C1CC1` [Example 15, {3-[2-{[(Cyclopropylcarbonyl)(ethyl)amino]methyl}-4-(trifluoromethyl)phenyl]-5-methyl-1H-indazol-1-yl}acetic acid], the IC50 was found to be 8 nM. Turning to `CCN(Cc1cc(C(F)(F)F)ccc1-c1nn(CC(=O)O)c2cccc(C)c12)C(=O)C1CC1` [Example 16, {3-[2-{[(Cyclopropylcarbonyl)(ethyl)ammo]methyl}-4-(trifluoromethyl)phenyl]-4-methyl-1H-indazol-1-yl}acetic acid], the IC50 stood at 17 nM.

As for `CCN(Cc1ccccc1-c1nn(CC(=O)O)c2ccc(Cl)cc12)C(=O)C1CC1` [Example 24], the IC50 was determined as 9 nM.

For `CCN(Cc1cc(F)ccc1-c1nn(CC(=O)O)c2cccc(Cl)c12)C(=O)C1CC1` [Example 4, [4-Chloro-3-(2-{[(cyclopropylcarbonyl)(ethyl)amino]methyl}-4-fluorophenyl)-1H-indazol-1-yl]acetic acid], the IC50 worked out at 9 nM. For `CCN(Cc1cc(C(F)(F)F)ccc1-c1nn(CC(=O)O)c2cccc(F)c12)C(=O)C1CC1` [Example 14, {3-[2-{[(Cyclopropylcarbonyl)(ethyl)amino]methyl}-4-(trifluoromethyl)phenyl]-4-fluoro-1H-indazol-1-yl}acetic acid] the value was 4 nM; for `CCN(Cc1cc(C(F)(F)F)ccc1-c1nn(CC(=O)O)c2ccccc12)C(=O)C1CC1` [Example 1, {3-[2-{[(Cyclopropylcarbonyl)(ethyl)amino]methyl]-4-(trifluoromethyl)phenyl]-1H-indazol-1-yl}acetic acid], 18 nM. With `CCN(Cc1cc(C(F)(F)F)ccc1-c1cn(CC(=O)O)c2ccc(F)c(F)c12)C(=O)C1CC1` [Example 50, {3-[2-{[(Cyclopropylcarbonyl)(ethyl)amino]methyl)-4-(trifluoromethyl)phenyl]-4,5-difluoro-1H-indol-1-yl}acetic acid], the IC50 is 16 nM. Consider `CCN(Cc1cc(C(F)(F)F)ccc1-n1cc(CC(=O)O)c2ccc(F)cc21)C(=O)C1CC1` [Example 30, {1-[2-[[(Cyclopropylcarbonyl)(ethyl)amino]methyl}-4-(trifluoromethyl)phenyl]-6-fluoro-1H-indol-3-yl}acetic acid], for which the IC50 is 18 nM.

Consider `CCN(Cc1cc(C(F)(F)F)ccc1-c1cn(CC(=O)O)c2cccc(F)c12)C(=O)C1CC1` [Example 40, (3-[2-[[(Cyclopropylcarbonyl)(ethyl)amino]methyl}-4-(trifluoromethyl)phenyl]-4-fluoro-1H-indol-1-yl}acetic acid], for which the IC50 was found to be 3 nM.

As for `CCN(Cc1cc(C(F)(F)F)ccc1-c1nn(CC(=O)O)c2cccc(Cl)c12)C(=O)NCc1ccccc1` [Example 23, (3-[2-{[[(Benzylamino)carbonyl](ethyl)amino]methyl}-4-(trifluoromethyl)phenyl]-4-chloro-1H-indazol-1-yl}acetic acid], the IC50 is 8 nM. With `CCN(Cc1cc(F)ccc1-c1nn(CC(=O)O)c2ccc(Cl)cc12)C(=O)C1CCC1` [Example 19, [5-Chloro-3-(2-{[(cyclobutylcarbonyl)(ethyl)amino]methyl}-4-fluorophenyl)-1H-indazol-1-yl]acetic acid], the IC50 was determined as 7 nM. For `CCN(Cc1cc(F)ccc1-c1nn(CC(=O)O)c2ccc(C(F)(F)F)cc12)C(=O)C1CC1` [Example 8, [3-(2-{[(Cyclopropylcarbonyl)(ethyl)amino]methyl}-4-fluorophenyl)-5-(trifluoromethyl)-1H-indazol-1-yl]acetic acid] the value was 7 nM; for `CCN(Cc1cc(C(F)(F)F)ccc1-c1nn(CC(=O)O)c2ccc(Cl)cc12)C(=O)C1CC1` [Example 5], 16 nM.

Consider `CCN(Cc1cc(F)ccc1-c1cn(CC(=O)O)c2ccccc12)C(=O)C1CC1` [Example 37, [3-(2-[[(Cyclopropylcarbonyl)(ethyl)amino]methyl}-4-fluorophenyl)-1H-indol-1-yl]acetic acid], for which the IC50 amounted to 11 nM. As for `CCN(Cc1cc(C(F)(F)F)ccc1-c1nn(CC(=O)O)c2ccc(F)cc12)C(=O)C1CC1` [Example 3, {3-[2-{[(Cyclopropylcarbonyl)(ethyl)amino]methyl}-4-(trifluoromethyl)phenyl]-5-fluoro-1H-indazol-1-yl}acetic acid], the IC50 came to 15 nM.

Consider `CCN(Cc1cc(F)ccc1-c1nn(CC(=O)O)c2ccc(Cl)cc12)C(=O)OC(C)(C)C` [Example 18, [3-(2-{[(tert-Butoxycarbonyl)(ethyl)amino]methyl}-4-fluorophenyl)-5-chloro-1H-indazol-1-yl]acetic acid], for which the IC50 was 13 nM. On to `CCN(Cc1cc(F)ccc1-c1cn(CC(=O)O)c2cccc(F)c12)C(=O)C1CC1` [Example 52, [3-(2-{[(Cyclopropylcarbonyl)(ethyl)amino]methyl}-4-fluorophenyl)-4-fluoro-1H-indol-1-yl]acetic acid], for which the IC50 was 7 nM. Turning to `CCN(Cc1cc(C(F)(F)F)ccc1-c1nn(C(C)C(=O)O)c2cccc(Cl)c12)C(=O)C1CC1` (stereo not drawn) [Example 9, 2-{4-Chloro-3-[2-{[(cyclopropylcarbonyl)(ethyl)amino]methyl}-4-(trifluoromethyl)phenyl]-1H-indazol-1-yl}propanoic acid], the IC50 stood at 13 nM. As to `Cc1nnc(C2CC2)n1Cc1cc(C(F)(F)F)ccc1-c1cn(CC(=O)O)c2ccc(F)cc12` [Example 46, (3-[2-[(3-Cyclopropyl-5-methyl-4H-1,2,4-triazol-4-yl)methyl]-4-(trifluoromethyl)phenyl]-5-fluoro-1H-indol-1-yl}acetic acid], the IC50 stood at 9 nM.

Consider `CCN(Cc1cc(C(F)(F)F)ccc1-c1nn(CC(=O)O)c2cccc(Cl)c12)C(=O)C1CC1` [Example 2, {4-Chloro-3-[2-{[(cyccopropylcarbonyl)(ethyl)amino]methyl}-4-(trifluoromethyl)phenyl]-1H-indazol-1-yl}acetic acid], for which the IC50 is 6 nM. Regarding `CCN(Cc1ccccc1-c1cn(CC(=O)O)c2ccc(F)cc12)C(=O)C1CC1` [Example 54, [3-(2-([(Cyclopropylcarbonyl)(ethyl)amino]methyl)phenyl)-5-fluoro-1H-indol-1-yl]acetic acid], the IC50 is 4 nM.

As for `CCN(Cc1cc(C(F)(F)F)ccc1-c1nn(CC(=O)O)c2ccc(F)c(Cl)c12)C(=O)C1CC1` [Example 17, {4-Chloro-3-[2-{[(cydopropylcarbonyl)(ethyl)amino]methyl}-4-(trifluoromethyl)phenyl]-5-fluoro-1H-indazol-1-yl}acetic acid], the IC50 is 10 nM.
